Results as given in patent US8629241B2, “Alpha helical mimics, their uses and methods for their production” (The University of Queensland, priority 2004, dated 2014).
Values belong to the molecule of their own block, whether it stands above or below them. Where a SMILES comes first, the peptide text is derived from it. Bridges are numbered along the chain shown (N, C = ends). [ ]: non-standard residue; d: D form. hArg = N=C(N)NCCCC[C@H](N)C(=O)O; Flu = fluorescein; βAla = NCCC(=O)O; Mpa = O=C(O)CCS

Assays:
[1] = phase III; patients at risk of abrupt vessel closure after coronary angioplasty; cited from earlier work
[2] = molecular target: T1, MDM2 (Homo sapiens, UniProt Q00987); conditions: read-out: dissociation constant; cited from earlier work
T1 sequence (Q00987 whole entry): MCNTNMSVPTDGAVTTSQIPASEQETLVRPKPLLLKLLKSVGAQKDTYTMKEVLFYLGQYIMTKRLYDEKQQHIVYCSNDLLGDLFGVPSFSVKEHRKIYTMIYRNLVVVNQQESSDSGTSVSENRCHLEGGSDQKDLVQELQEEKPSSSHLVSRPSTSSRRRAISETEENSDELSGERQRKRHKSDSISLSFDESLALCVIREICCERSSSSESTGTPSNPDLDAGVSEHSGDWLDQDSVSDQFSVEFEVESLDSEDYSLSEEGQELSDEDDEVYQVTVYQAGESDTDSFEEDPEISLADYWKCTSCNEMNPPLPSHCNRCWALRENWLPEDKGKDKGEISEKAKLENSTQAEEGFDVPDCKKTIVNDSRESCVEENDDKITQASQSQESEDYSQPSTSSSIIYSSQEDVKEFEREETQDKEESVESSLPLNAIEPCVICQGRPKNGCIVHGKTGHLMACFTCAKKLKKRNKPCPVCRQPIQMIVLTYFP

[3] = molecular target: trypsin; conditions: cited from earlier work
[4] = molecular target: thrombin (Homo sapiens, UniProt P00734); conditions: cited from earlier work
[5] = molecular target: T1, MDM2; conditions: cited from earlier work
[6] = test system: trypsin; test: in vitro; type: in vitro ADME; conditions: isolated enzyme trypsin, pH 8
Experimental: Solutions of SEQ ID NO: 46 (25 μM) and linear peptide SEQ ID NO: 54 (26 μM) were incubated with trypsin (1 μg/mL) in 25 mM ammonium carbonate buffer (pH=8) at room temperature. Aliquots were taken at 30 seconds, 1 minute, 5 minutes, 15 minutes, 30 minutes, 1 hour and 2 hours, and diluted with an equivalent volume of 3% trifluoroacetic acid. The resultant solutions were analyzed using a 2×75 mm, 3 μm, Aqua C-18 column (Phenomenex) equilibrated in aqueous formic acid (0.1%). Peptide cleavage products were eluted using a linear gradient of acetonitrile from 0 to 80% in aqueous 0.01% formic acid over 20 minutes at a rate of 300 μL/min. Rate of degradation of either SEQ ID NO: 32 or SEQ ID NO: 43 was quantified by determining extracted ion counts of chromatograms relative to control solutions (containing no enzyme) using a QSTAR PULSAR Electrospray QqTOF Mass Spectrometer and analyzed using BioMultiview (SCIEX Software). Retention time of SEQ ID NO: 46=11.64 minutes. Retention time of linear peptide SEQ ID NO: 54=7.43 minutes. SEQ ID NO: 46 was also found to be highly resistant to proteolytic cleavage by trypsin (97% recovered intact after 2 h), whereas the linear peptide […] (SEQ ID NO: 54) was completely degraded within 30 seconds.

[7] = type: physicochemical; conditions: for θ222/θ208 / [θ]192 / [θ]208 / [θ]222: Table 8; for [θ]192 / [θ]208 / [θ]222: one or more cyclic pentapeptide modules versus linear peptides; for % helicity: fH × 100, [θ∞H]222 = −44000, k = 2.6
Experimental: Circular Dichroism (CD) was performed on peptides having SEQ ID NOs: 8 to 14 and 18 to 31, using methods described above. The molar elipticities at 222 nm, 208 nm and 190 nm, ratios of elipticities at 222 nm/208 nm and relative helicity are shown in Tables 6 and 7.
Assuming that mean alpha helix content (fH) is linearly related to elipticity at 222 nm, or in our case 215 nm ([θ]obs215), then the equation for calculating helix content is: fH=([θ]obs215−[θ]C)/([θ]∞215−[θ]C) (1) Luo and Baldwin^22 determined that the random coil ([θ]C) and infinite alpha helix ([θ]∞222) molar elipticities are temperature dependent based on the equations: [θ]C=2220−53T (2a) [θ]∞215=(−44000+250T)(1−k/Np) (2b) where T is temperature in degrees Celsius, Np is the number of peptide units, and k is a finite length correction.
CD was performed on peptides having one [SEQ ID NO: 8] or more than one modular macrocycle [SEQ ID NOs: 46 and 47], as compared with corresponding linear peptides, Ac[KARAD]n—NH2 where n=1 [SEQ ID NO: 14], n=2 [SEQ ID NO: 54] and n=3 [SEQ ID NO: 55]. The molar elipticities at 222 nm, 208 nm and 190 nm, ratios of elipticities at 222 nm/208 nm and percentage helicity are shown in Table 8.
(§1) CD experiments were performed on a Jasco Model J-710 spectropolarimeter which was routinely calibrated with (1S)-(+)-10-camphorsulfonic acid. Temperature control was achieved using a Neslab RTE-111 circulating water bath. Spectra were recorded in a 0.1 cm Jasco cell between 310-185 nm at 50 nm/min with a band width of 1.0 nm, response time of 2 sec, resolution step width of 0.1 nm and sensitivity of 20, 50 or 100 mdeg. Each spectrum represents the average of 5 scans with smoothing to reduce noise. Peptide samples for CD spectroscopy were dissolved in distilled water (˜1 mg/mL). Each stock solution was diluted to a final concentration of 50 μM in 10 mM sodium phosphate buffer (pH7.4), with or without additives (2,2,2-trifluoroethanol (TFE) or guanidine.HCl). Guanidine.HCl denaturation experiments were performed according to Creighton^105.
1D ^1H NMR spectra were then recorded with presaturation and a relaxation delay (d1) of 30 seconds to allow for full relaxation of peptide and DSS^1H signals to facilitate accurate integration of proton signals with S/N>250:1. This method provides reproducible concentrations within ±2%.
CD data in ellipticity was converted to mean peptide ellipticity using the equation: [θ]=θ/(10×C×Np×1) where θ is the ellipticity in millidegrees, C is the peptide molar concentration (M), 1 is the cell path length (cm), and Np is the number of peptide units (ie. pentapeptides […], 10 & 11 Np=5, 12 Np=4.)
Relative helicities were employed to allow scaling of compounds by dividing the [θ]obs215(8)/[θ]obs215(x) for pentapeptides, and [θ]obs215(24)/[θ]obs215(x) for hexapeptides.

[8] = molecular target: Bcl-xL (Homo sapiens, UniProt Q07817); conditions: read-out: dissociation constant; cited from earlier work
Chain of Bcl-xL (Q07817 whole entry, species assumed): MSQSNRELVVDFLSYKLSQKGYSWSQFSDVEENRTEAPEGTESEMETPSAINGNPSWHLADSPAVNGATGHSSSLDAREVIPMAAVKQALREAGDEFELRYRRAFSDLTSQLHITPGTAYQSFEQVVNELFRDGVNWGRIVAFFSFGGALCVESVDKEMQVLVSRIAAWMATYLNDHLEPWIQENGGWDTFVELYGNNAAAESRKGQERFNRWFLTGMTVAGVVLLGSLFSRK

[9] = molecular target: Bcl-2 (Homo sapiens, UniProt P10415); conditions: read-out: dissociation constant; cited from earlier work
Chain of Bcl-2 (P10415 whole entry, species assumed): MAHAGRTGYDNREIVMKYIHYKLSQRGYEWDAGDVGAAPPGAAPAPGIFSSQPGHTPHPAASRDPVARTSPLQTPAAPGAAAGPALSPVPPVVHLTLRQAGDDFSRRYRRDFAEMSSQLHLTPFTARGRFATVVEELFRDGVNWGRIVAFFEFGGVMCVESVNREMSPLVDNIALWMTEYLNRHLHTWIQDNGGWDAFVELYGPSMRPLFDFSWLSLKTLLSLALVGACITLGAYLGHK

[10] = Stability against denaturants (guanidine.HCl, temperature) followed by CD; type: physicochemical; conditions: 8M guanidinium chloride, 25° C
Experimental: Proteolytic stability of the helix. trypsin digestion
The helical macrocycles were conformationally very stable even under protein-denaturing conditions, as illustrated by the low dependence of their CD spectra on temperature between 5-65° C. (FIG. 9a) and on the concentration of guanidine.HCl (FIG. 9b).
as §1

[11] = test system: trypsin; test: Proteolytic stability of the helix, trypsin digestion (Example 10); type: in vitro ADME; conditions: pH 8.2, room temperature, 1 to 155 minutes
Experimental: A standard solution of Ac—KARAD-NH2 and Ac—(cyclo-1,5)-KARAD-NH2 (1 mg/mL) was prepared in 100 mM ammonium carbonate buffer at pH˜8.2. To 100 μL of each solution was added 1 mg/mL of trypsin (1 μL). The digest was conducted at room temperature with 5 μL aliquots taken at 1, 4, 8, 28, 48, 55, 110, 155 minutes. Aliquots were diluted with 5 μL of 3% TFA to stop the reaction. and analyzed by LC-MS using 2.1×150 mm Phenomenex 300 Å C18 5 μm column, with a 3% per minute linear gradient of 0-60% acetonitrile over 20 minutes. The amount of starting material left in each sample was quantified by determination of total ion counts for the molecular ion.
Compound of SEQ ID NO 8 and its acyclic version SEQ ID NO: 14 were incubated with trypsin (pH 8.2), aliquots removed at intervals between 1 and 155 minutes, and analyzed by LCMS. […] Similarly the cyclic compound 8 was not degraded by human serum (1 h, 37° C.). […] This is consistent with other observations that only an extended or linear peptide conformation is recognized, not only by trypsin, but by all proteolytic enzymes^125 Presumably the cycle is too tightly locked into an alpha helical turn to permit significant unwinding to the extended format needed for recognition by trypsin.

[12] = Serum stability; type: in vitro ADME; conditions: 1 h, 37° C
Experimental: Standard solutions of Ac—KARAD-NH2 and Ac—(cyclo-1,5)-KARAD-NH2 (1 mg/mL) were prepared in water. 200 μL of each peptide was added to human serum 800 μL and incubated at 37° C. Acetonitrile/water 3:1 (300 μL) was added to aliquots (100 μL) of serum at 5, 15, 30, 45 and 60 minutes to precipitate serum proteins, which were removed by centrifugation. The decanted supernatant was analyzed by LC-MS MS with a 2.1×150 mm Phenomenex 300 Å C18 5 um column, using a 3% per minute linear gradient from 0%-60% acetonitrile over 20 minutes. The amount of starting material left in each sample was quantified by determination of total ion counts for the molecular ion.

Molecule: N=C(N)NCCCC[C@@H]1NC(=O)CCSSC[C@@H](C(N)=O)NC(=O)[C@@H]2CCCN2C(=O)[C@H](Cc2c[nH]c3ccccc23)NC(=O)[C@H](CC(=O)O)NC(=O)CNC1=O [eptifibatide] ([Mpa][hArg]GDWPC-NH2; disulfide 1-7)
incidence of cardiac events [1]: reduce the incidence of cardiac events

Molecule: Ac—FR(Dpr-Flu)(Ac6c)(6-Br—W)EEL-NH2
Kd [2]: 2 nM

Molecule: N=C(N)NCCC[C@@H]1NC(=O)[C@@H]2CCCN2C(=O)[C@@H](NC=O)CNC(=O)/C=C/C(Cc2ccc(O)cc2)NC(=O)[C@@H](Cc2ccccc2)NC(=O)C1=O (some centres unmarked) [Cyclotheonamide A]
Ki [3]: 23 nM | Ki [4]: 180 nM

Molecule: Acetyl-Phe-Met-Aib-Pmp-6C1W-Glu-Ac3c-Leu-NH2
IC50 [5]: 5 nM

remaining at 2 h, 25 μM [6]: 97% | θ222/θ208 [7]: 1.29 | [θ]192 [7]: 104187 degcm^2dmol^−1residue^−1 | [θ]208 [7]: −24957 degcm^2dmol^−1residue^−1 | [θ]222 [7]: −32340 degcm^2dmol^−1residue^−1 | % helicity [7]: 99%
Molecule: CC(=O)N[C@H]1CCCCNC(=O)C[C@@H](C(=O)N[C@H]2CCCCNC(=O)C[C@@H](C(N)=O)NC(=O)[C@H](C)NC(=O)[C@H](CCCNC(=N)N)NC(=O)[C@H](C)NC2=O)NC(=O)[C@H](C)NC(=O)[C@H](CCCNC(=N)N)NC(=O)[C@H](C)NC1=O [SEQ ID NO: 46] (Ac-KARADKARAD-NH2; lactam 1-5, 6-10)

Molecule: Flu-βANLWAAQRYGRELRRMSDKKFVDSFKK-NH2 ({Flu-βAla}-ANLWAAQRYGRELRRMSDKKFVDSFKK-NH2)
Kd [8]: 0.6 nM | Kd [9]: 3 nM

alpha helicity (molar elipticity at 215 nm) in denaturant [10]: maintains full alpha helicity | stability to trypsin (starting material left, LCMS) [11]: remained intact | degradation by human serum [12]: not degraded | molar elipticity at 215 nm in helix stabilizing solvent [7]: does not increase | θ222/θ208 [7]: 0.98 | [θ]192 [7]: 52191 degcm^2dmol^−1residue^−1 | [θ]208 [7]: −17039 degcm^2dmol^−1residue^−1 | [θ]222 [7]: −15464 degcm^2dmol^−1residue^−1 | Relative helicity ([7]; [θ]215 relative to SEQ ID NO: 8, 10 mM phosphate buffer, pH 7.4, 25° C): 1.00 | percentage helicities ([7]; equation 2b with k˜4, assuming 8 has 100% helicity): 100% | % helicity [7]: 79% | helicity on variation of the k factor ([7]; k factor from 2.4 to 4.5): 56-135% | [θ]190 ([7]; molar elipticity at 190 nm, 10 mM phosphate buffer, pH 7.4, 25° C): 38300 deg.cm^2.dmol^−1.residue^−1 | [θ]207 ([7]; molar elipticity at 207 nm, 10 mM phosphate buffer, pH 7.4, 25° C): −12211 deg.cm^2.dmol^−1.residue^−1 | [θ]215 ([7]; molar elipticity at 215 nm, 10 mM phosphate buffer, pH 7.4, 25° C): −12757 deg.cm^2.dmol^−1.residue^−1 | θ215/θ207 ([7]; ratio of elipticities, 10 mM phosphate buffer, pH 7.4, 25° C): 1.04
Molecule: CC(=O)N[C@H]1CCCCNC(=O)C[C@@H](C(N)=O)NC(=O)[C@H](C)NC(=O)[C@H](CCCNC(=N)N)NC(=O)[C@H](C)NC1=O [SEQ ID NO: 8, Ac-(cyclo-1,5)-[KARAD]-NH2] (Ac-KARAD-NH2; lactam 1-5)
